According to patent US10166249B2, “Substituted bicyclic compounds” (BRISTOL-MYERS SQUIBB COMPANY, priority 2014, dated 2019):
Entries after “also recorded” stand apart in the source; their conditions may differ. Like-named read-outs stand apart in the source and are kept apart here. One block for each compound: values may come before it.

Key:
[1] = tested on: MRL/lpr spontaneous lupus model; test: MRL/lpr Lupus Model (anti-dsDNA antibody titers, kidney histology); type: in vivo; details: MRL/lpr mice, p.o. daily, 0.06, 0.3, 1.5 mg/kg
Excerpt: MRL/lpr Lupus Model: MRL/lpr is a spontaneous model of lupus. Male MRL/lpr mice (Jackson Laboratory) at the age of 12-14 weeks were enrolled for the study (N=12). […] Mice were bled every other week for anti-dsDNA antibodies measured by ELISA using pooled serum from diseased MRL/lpr mice as a positive comparator in each assay. The data were expressed in arbitrary units as a ratio of the titer of the test serum to the titer of the pooled MRL/lpr immune serum. At the end of study, one kidney was collected into 10% neutral buffered formalin and ZincTris fixatives. Fixed tissues were processed into paraffin blocks, sectioned at 3 μm, and stained with H&E or PASH. Kidney sections were graded using following criteria: Glomerular Damage: 1. Mesangial matrix thickening, cell proliferation, 2. Crescent formation, cellular deposits/casts in Bowman's space, 3. Cellular infiltration, mononuclear cells in glomerular tufts, 4. Fibrosis of Bowman's capsule. Tubular damage: 1. Infiltration of mononuclear cells, 2. Severity of tubular damage, 3. Protein casts. Tubulo-interstitial damage: 1. Fibrosis, 2. Infiltration of mononuclear cells. Each subcategory was assigned a score from 0-4, with the scores for glomerular indices representing the mean from 20 glomeruli per kidney. The total score for each mouse was the sum of the above 9 subcategories, with the highest possible score=36.

[2] = tested on: mouse EAE model (clinical score); test: Mouse Experimental Autoimmune Encephalomyelitis Assay (EAE); type: in vivo; details: C57Bl/6 mice, prophylactic oral dosing regimen
Experimental: Mouse Experimental Autoimmune Encephalomyelitis Assay (EAE)
Mice (C57BL/6 female, 6-8 weeks of age, Charles River, n=10 treatment group) were immunized subcutaneously with 150 μg MOG35-55 emulsified 1:1 with incomplete Freund's adjuvant (sigma) supplemented with 150 μg Mycobacterium tuberculosis H37RA (Difco Laboratories). 400 ng of pertussis toxin (CalBiochem) was injected intraperitoneally on the day of immunization and 2 day later. Clinical scoring and body weight were taken 3 times per week. Clinical scoring system: 0.5: partial tail weakness; 1: limp tail or waddling gait with tail tonicity; 1.5: waddling gait with partial tail weakness; 2: waddling gait with limp tail (ataxia); 2.5: ataxia with partial limb paralysis; 3: full paralysis of one limb; 3.5: full paralysis of one limbs with partial paralysis of a second limb; 4: full paralysis of two limbs; 4.5: moribund; 5: death. Mean clinical score was calculated by averaging the scores of all mice in each group. All procedures involving animals were reviewed and approved by the Institutional Animal Care Use Committee.

[3] = target: S1P3 (EDG3) (Homo sapiens (Human), UniProt Q99500); test: Receptor [35S] GTPγS binding assay (S1P3 GTPγS), membranes from EDG3-Gal5-bla HEK293T cells; type: biochemical
Sequence of S1P3 (EDG3) (Q99500 whole entry): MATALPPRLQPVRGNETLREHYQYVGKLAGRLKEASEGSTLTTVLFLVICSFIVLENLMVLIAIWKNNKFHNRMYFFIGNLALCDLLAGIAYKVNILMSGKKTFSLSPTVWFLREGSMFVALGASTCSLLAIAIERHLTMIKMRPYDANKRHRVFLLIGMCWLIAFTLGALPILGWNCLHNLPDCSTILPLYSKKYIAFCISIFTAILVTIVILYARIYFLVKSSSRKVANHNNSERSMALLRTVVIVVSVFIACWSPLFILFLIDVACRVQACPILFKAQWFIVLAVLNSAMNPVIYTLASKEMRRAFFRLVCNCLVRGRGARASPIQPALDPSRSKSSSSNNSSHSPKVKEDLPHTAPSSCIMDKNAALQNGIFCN
Experimental: (§1) Receptor [^35S] GTPγS Binding Assays: (S1P1 GTPγS/S1P3 GTPγS)
(§2) Compounds were loaded in a 384 Falcon v-bottom plate (0.5 l/well in a 11 point, 3-fold dilution). Membranes prepared from S1P1/CHO cells or EDG3-Gal5-bla HEK293T cells (EDG3 equivalent S1P3) were added to the compound plate ([…], final protein 3 μg/well) with MULTIDROP®. [^35S]GTP (1250 Ci/mmol, Perkin Elmer) was diluted in assay buffer: 20 mM HEPES, pH7.5, 10 mM MgCl2, 150 mM NaCl, 1 mM EGTA (ethylene glycol tetraacetic acid), 1 mM DTT (Dithiothreitol), 10 μM GDP, 0.1% fatty acid free BSA, and 10 μg/ml Saponin to 0.4 nM. 40 μl of the [^35S] GTP solution was added to the compound plate with a final concentration of 0.2 nM. The reaction was kept at room temperature for 45 min. At the end of incubation, all the mixtures in the compound plate were transferred to Millipore 384-well FB filter plates via the VELOCITY11® Vprep liquid handler. The filter plate was washed with water 4 times by using the manifold Embla plate washer and dried at 60° C. for 45 min. MicroScint 20 scintillation fluid (30 μl) was added to each well for counting on the Packard TOPCOUNT®.
A smaller value for GTPγS S1P1 EC50 value indicated greater activity for the compound in the GTPγS S1P1 binding assay. A larger value for the GTPγS S1P3 EC50 value indicated less activity in the GTPγS S1P3 binding assay. […]

[4] = target: T1, S1P1 (Homo sapiens (Human), UniProt P21453); test: Receptor [35S] GTPγS binding assay (S1P1 GTPγS), membranes from S1P1/CHO cells; type: biochemical; details: for activity as an agonist of S1P1: result in words
T1 sequence (P21453 whole entry): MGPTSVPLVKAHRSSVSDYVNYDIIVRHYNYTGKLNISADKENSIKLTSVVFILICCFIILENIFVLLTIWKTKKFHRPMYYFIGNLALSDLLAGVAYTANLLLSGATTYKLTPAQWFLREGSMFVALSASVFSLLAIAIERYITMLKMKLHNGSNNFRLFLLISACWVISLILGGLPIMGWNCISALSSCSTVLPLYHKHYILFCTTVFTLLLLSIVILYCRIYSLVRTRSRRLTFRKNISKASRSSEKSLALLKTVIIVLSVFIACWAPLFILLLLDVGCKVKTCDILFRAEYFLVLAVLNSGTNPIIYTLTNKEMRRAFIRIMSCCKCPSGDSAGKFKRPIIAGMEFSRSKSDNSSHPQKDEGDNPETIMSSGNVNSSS
Experimental: as §1
as §2, with “Membranes” for “Compounds were loaded in a 384 Falcon v-bottom plate (0.5 l/well in a 11 point, 3-fold dilution). Membranes”
A larger value for the GTPγS S1P3 EC50 value indicated less activity in the GTPγS S1P3 binding assay.

[5] = tested on: rat adjuvant-induced arthritis model (hind paw volume); test: Rat Adjuvant Induced Arthritis Assay (AA); type: in vivo, Lewis rats; details: Lewis rat, prophylactic oral dosing regimen
Experimental: Rat Adjuvant Induced Arthritis Assay (AA)
The rat adjuvant-induced arthritis model is an animal model for human rheumatoid arthritis.
Male Lewis rats (150-175 g; Harlan, n=8 treatment group) were immunized at the base of the tail with 100 μl of 10 mg/ml freshly ground Mycobacterium butyricum (Difco Laboratories) in incomplete Freund's adjuvant (sigma). Animals were dosed once daily with the test article (as a solution or suspension in the vehicle) or vehicle alone (polyethylene glycol 300, “PEG300”) starting from the day of immunization. The volumes of their hind paws were measured in a water displacement plethysmometer (Ugo Basile, Italy). The baseline paw measurements were taken before onset of the disease (between day 7 to day 10). The paw measurements were then taken three times a week until the end of the study on day 20 to 21. All procedures involving animals were reviewed and approved by the Institutional Animal Care Use Committee.

[6] = target: T1, S1P1; test: S1P1 binding assay (33P-S1P radioligand competition, membranes from CHO cells)
Experimental: Membranes were prepared from CHO cells expressing human S1P1. Cells pellets (1×10^9 cells/pellet) were suspended in buffer containing 20 mM HEPES (4-(2-hydroxyethyl)-1-piperazineethanesulfonic acid), pH 7.5, 50 mM NaCl, 2 mM EDTA (Ethylenediaminetetraacetic acid) and Protease Inhibitor cocktail (Roche), and disrupted on ice using the Polytron homogenizer. The homogenate was centrifuged at 20,000 rpm (48,000 g) and the supernatant was discarded. The membrane pellets were resuspended in buffer containing 50 mM HEPES, pH 7.5, 100 mM NaCl, 1 mM MgCl2, 2 mM EDTA and stored in aliquots at −80° C. after protein concentration determination.

[7] = tested on: rat EAE model (clinical score); test: Rat Experimental Autoimmune Encephalomyelitis (EAE); type: in vivo, Lewis rats; details: Lewis rat; for Clinical Score on Day 11 (Mean): rat EAE, prophylactic oral dosing
Experimental: Rat Experimental Autoimmune Encephalomyelitis (EAE):
Female Lewis rats (150-200 g; Harlan) were immunized at the base of the tail with 0.1 ml of a complete Freund's adjuvant emulsion containing 0.5 mg/mL guinea pig myelin basic protein (Genemed Synthesis) and 2 mg/mL Mycobacterium butyricum (Difco). Beginning on Day 7, rats (n=11/group) were scored individually at least 3×/wk according to the following scheme:
Average clinical scores were calculated for each treatment group on each day of assessment.

[8] = target: hS1P1 (Homo sapiens (Human), UniProt P21453); test: hS1P1 ERK phosphorylation (S1P1 pERK) in hS1P1/CHO cells; type: cell-based; details: phosphate examples
Sequence of hS1P1 (P21453 whole entry): as above
Experimental: hS1P1 ERK Phosphorylation (S1P1 pERK)
hS1P1/CHO cells were plated into BD Amine 384-well plates the day before the assay. On the day of the assay, growth medium was removed and replaced with serum-free medium (Ham's F-12 Invitrogen) and incubated for 2 hours. Test compounds pre-diluted in HBSS (Gibco)/20 mM HEPES (Gibco) were transferred to the cell plates and incubated for 7 minutes at 37° C. Cells were lysed in lysis buffer (Perkin Elmer) and phospho-ERK was measured using the SureFire pERK kit (Perkin Elmer) as described by the manufacturer. Data was plotted as percentage activation of the test compound relative to the efficacy of 10 μM S1P.

[9] = 33P-S1P competition, membranes from CHO cells expressing human S1P1, read-out: S1P1 Binding IC50
[10] = membranes from S1P1/CHO cells, read-out: GTPγS S1P1 EC50

- selectivity over S1P3 ([3]; result in words, S1P1 versus S1P3 GTPγS): selective over S1P3
- activity as an agonist of S1P1 [4]: possessed activity as an agonist of S1P1
SMILES: COCCCCCC1CCc2cc([C@H]3CC[C@](N)(COP(=O)(O)O)C3)ccc2C1 (single isomer, unassigned) [Example 689]

- IC50 [6, 9]: 119 nM
- EC50 [4, 10]: 49 nM
SMILES: CCOCCCC1CCc2cc([C@H]3CC[C@](N)(COP(=O)(O)O)C3)ccc2C1 (single isomer, unassigned) [Example 695]

- EC50 [4, 10]: 4.4 nM
SMILES: COCCCCCC1CCc2cc([C@@H]3CC[C@](N)(COP(=O)(O)O)C3)ccc2C1 (single isomer, unassigned) [Example 692]

- IC50 [6, 9]: 5.2 nM
- EC50 [4, 10]: 19.2 nM
SMILES: COc1cccc(CCC2CCc3cc([C@H]4CC[C@](N)(COP(=O)(O)O)C4)ccc3C2)c1 (single isomer, unassigned) [Example 693]

The next lines start with the compound.

SMILES: COc1ccccc1CC[C@@H]1CCc2cc([C@H]3CC[C@](N)(CO)C3)ccc2C1 [Example 681, ((1R,3S)-1-amino-3-((S)-6-(2-methoxyphenethyl)-5,6,7,8-tetrahydronaphthalen-2-yl)cyclopentyl)methanol]
- inhibition of disease progression as measured by anti-dsDNA titers and kidney histology [1]: showed inhibition of disease progression
- inhibition of disease progression as measured by clinical scores [2]: showed inhibition of disease progression; also recorded: inhibit disease progression

SMILES: COCCCCC[C@H]1CCc2cc([C@H]3CC[C@](N)(CO)C3)ccc2C1 [Example 672, ((1R,3S)-1-amino-3-((S)-6-(5-methoxypentyl)-5,6,7,8-tetrahydronaphthalen-2-yl)cyclopentyl)methanol]
- inhibition of disease progression as measured by reduced paw swelling [5]: showed inhibition of disease progression

SMILES: CCOCCC[C@@H]1CCc2cc([C@H]3CC[C@](N)(CO)C3)ccc2C1 [Example 679, ((1R,3S)-1-amino-3-((S)-6-(3-ethoxypropyl)-5,6,7,8-tetrahydronaphthalen-2-yl)cyclopentyl)methanol]
- inhibition of disease progression as measured by clinical scores [2]: showed inhibition of disease progression; also recorded: inhibit disease progression
- inhibition of disease progression as measured by reduced paw swelling [5]: showed inhibition of disease progression
- inhibition of disease progression as measured by reduced clinical scores ([7]; prophylactic oral dosing regimen): showed inhibition of disease progression
- Clinical Score on Day 11 (Mean) ([7]; 0.3 mg/kg): 0.36
- Clinical Score on Day 11 (Mean) ([7]; 1.0 mg/kg): 0.09
- Clinical Score on Day 11 (Mean) ([7]; 3.0 mg/kg): 0.02

SMILES: CCC/C=C/CO[C@@H]1CCc2cc([C@H]3CC[C@](N)(COP(=O)(O)O)C3)ccc2C1 [compound 439]
- IC50 ([6]; phosphate examples, read-out: S1P1 Binding): < 10 nM
- EC50 [8]: < 10 nM
- EC50 ([3]; phosphate examples): > 625 nM
- EC50 ([4]; phosphate examples, read-out: S1P1 GTPγS): 10 to 100 nM

SMILES: COc1ccccc1CCC1CCc2cc([C@H]3CC[C@](N)(COP(=O)(O)O)C3)ccc2C1 (single isomer, unassigned) [Example 697]
- activity as an agonist of S1P1 [4]: possessed activity as an agonist of S1P1
